# Measured values: EP3981777A1, “ANTIVIRAL COMPOUNDS AND POLYMERS” (priority 2020, dated 2022)
# Molecular target: T1, DC-SIGN (Homo sapiens, UniProt Q9NNX6)
# T1 construct: host or cells: B-THP-1 (Raji B) cells, DC-SIGN+
# T1 sequence (Q9NNX6 1-404): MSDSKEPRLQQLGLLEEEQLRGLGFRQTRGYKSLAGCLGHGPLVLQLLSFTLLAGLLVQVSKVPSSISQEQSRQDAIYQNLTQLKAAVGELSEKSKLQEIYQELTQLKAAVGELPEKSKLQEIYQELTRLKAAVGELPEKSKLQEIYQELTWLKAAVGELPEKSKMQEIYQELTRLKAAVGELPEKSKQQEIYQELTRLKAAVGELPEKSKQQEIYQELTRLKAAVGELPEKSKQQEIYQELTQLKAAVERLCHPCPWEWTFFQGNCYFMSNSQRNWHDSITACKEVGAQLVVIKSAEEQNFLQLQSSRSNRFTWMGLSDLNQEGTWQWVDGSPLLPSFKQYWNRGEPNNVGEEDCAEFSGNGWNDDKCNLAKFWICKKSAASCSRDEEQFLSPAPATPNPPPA
# Assay: cell-based
smiles,measurement,value
"CO[C@H]1O[C@H](CO)[C@@H](O)[C@H](O)[C@@H]1O [MeMan, methyl α-D-mannoside]",IC50,6.5 mM
